Like-named read-outs stand apart in the source and are kept apart here.
Key:
[1] = test system: Toxoplasma gondii tachyzoites of the RH strain; experiment: microbe, parasite or virus in culture; details: 168 h; for inhibition at 1 µM: read-out: Inhibition of tachyzoite proliferation
[2] = test system: Toxoplasma gondii tachyzoites of the RH strain; details: for IC50: 7 days of treatment
[3] = Rat, cited from earlier work; for Cmax: read-out: Plasma concentration (Cmax)
in vitro = details: human
[4] = Cytotoxicity assay in NHDF cells (MTS); details: human
[5] = cited from earlier work
T. gondii tachyzoites [6] = experiment: Transmission electron microscopy of treated tachyzoites; format: cell-based, Toxoplasma gondii; details: 48 h
Protocol: NHDF cultures infected with T. gondii were treated with compounds and fixed with 2.5% glutaraldehyde (EM Grade—Ted Pella Inc., Redding, CA, USA) in 0.1 M sodium cacodylate buffer pH 7.4 (Ted Pella Inc.). Cells were post-fixed with 1% osmium tetroxide, 1.25% potassium ferrocyanide, and 5 mM CaCl2, in 0.1 M sodium cacodylate buffer (pH 7.4). The sample fixation and processing for microscopy were performed as previously described. Samples were dehydrated in alcohol solutions of increasing concentrations (35–100%) and embedded in epoxy resin (Polybed 812, Polysciences). Ultrathin sections were collected in copper grids 300 mesh (Ted Pella Inc.), stained with uranyl acetate and lead citrate, and then observed in a Fei TecNai G2 120 kV Spirit Electron Microscope (FEI Company, Eindhoven, The Netherlands).

[7] = test system: Toxoplasma gondii tachyzoites of the RH strain; experiment: microbe, parasite or virus in culture; format: cell-based; details: Toxoplasma gondii; for inhibition at 0.0625 µM / activity at 0.0625 µM: 62.5 nM; for activity at 0.125 µM: 125 nM; for activity at […]: 250 nM
T. gondii tachyzoites [8] = details: cited from earlier work
T. gondii tachyzoites [9] = experiment: Immunofluorescence microscopy of treated tachyzoites (aberrant cell division, rhoptry morphology); details: 24 h; for PVs with parasites with aberrant division: IMC1 and DAPI labeling
Protocol: Rabbit anti-IMC1 (1:1000) and anti-ARO (1:1000) (kindly provided by Dr. Dominique Soldati, Universite de Geneve, Switzerland) were used to label the mother cell and daughter cell pellicles throughout the endodyogeny process and rhoptries, respectively. Mouse anti-SAG1 (1:200; kindly donated by Dr. Tiago Mineo, Universidade Federal de Uberlândia) was used to label the parasite plasma membrane. DAPI (2 µg/mL; Sigma-Aldrich, St. Louis, MO, USA) was used to label the DNA. […] After labeling with antibodies, the coverslips were mounted onto slides using Prolong gold (Life Technologies), and samples were examined on a Zeiss Axio Observer Z1 microscope (Baden-Württemberg, Germany) or Olympus BX60 microscope (Shinjuku City, Tokyo, Japan).

[10] = published in vivo studies; ref Table S3; cited from earlier work
[11] = Mice/Mouse; ref Table S3 supplementary refs 6, 16, 24, 27, 33; cited from earlier work
[12] = cited from earlier work; remark: listed apart in the source
[13] = ref Table S3 supplementary refs 3, 10, 12, 21
[14] = ref Table S3 supplementary refs 3, 10, 12, 28, 32
[15] = NHDF, read-out: IC50 (μM) in Tachyzoites, RH strain in NHDF cells, plaque assay, 7 days of treatment
[16] = read-out: Plasma concentration (Cmax), Human, ref Table S3 supplementary refs 20, 22, 25, 31
[17] = read-out: IC50 against T. gondii proliferation, RH strain, 7 days of treatment
[18] = read-out: IC50 (μM) in Tachyzoites, RH strain in NHDF cells, plaque assay
[19] = read-out: IC50 against T. gondii proliferation, RH strain
[20] = 31.2 nM, 24 h of treatment, read-out: Proliferation index (%)
[21] = 24 h, read-out: Inhibition of parasite proliferation
[22] = 24 h of treatment, read-out: Proliferation index (%)
[23] = Human, ref Table S3 supplementary refs 1, 4, 8, 11, 13, 15, 17, 18, 19, 23, 31
[24] = read-out: Plasma concentration (Cmax), Human, ref Table S3 supplementary refs 1, 4, 8, 11, 13, 15, 17, 18, 19, 23

## C[C@@H]1O[C@@H](O[C@@H]2C=C3CC[C@@H]4[C@H](CC[C@]5(C)[C@@H](c6ccc(=O)oc6)CC[C@]45O)[C@@]3(C)CC2)[C@H](O)[C@H](O)[C@H]1O [proscillaridin, Proscillaridin]
[1]
  inhibition at 1 µM: ≥ 70%
[2]; 1 µM, NHDF host cells
  Cytotoxicity for the host cells during the initial screening: signs of cytotoxicity for the host cells

## COc1cc2c3cc1Oc1c(OC)c(OC)cc4c1[C@@H](Cc1ccc(O)c(c1)Oc1ccc(cc1)C[C@@H]3N(C)CC2)N(C)CC4 [Berbamine]
[3]; [13]
  Plasma concentration (Cmax): 32.6 ng/mL
[3]; [14]
  Cmax: 53.6 nM
[1]; [15]
  IC50: 0.31 ± 0.03 µM
In vitro
  CC50 at 7 days: 4610 ± 7520 nM
  selectivity ratio at 7 days: 15

## O=C(Nc1ccc([N+](=O)[O-])cc1Cl)c1cc(Cl)ccc1O [Niclosamide]
[3]; ref Table S3 supplementary refs 21, 29
  Cmax: 1080 nM
[4]
  CC50 at 7 days: 3050 ± 80 nM
[5]; Human, ref Table S3 supplementary ref 22
  Plasma concentration (Cmax): 1280 ng/mL
[5]; [16]
  Cmax: 3900 nM
[1]; [15]
  IC50: 0.36 ± 0.02 µM
In vitro
  selectivity ratio at 7 days: 8

## C[C@@H]1C[C@@H]([C@H](O)CC2CC(=O)NC(=O)C2)C(=O)[C@@H](C)C1 [Cycloheximide]
[3]; [13]
  Plasma concentration (Cmax): 43.1 ng/mL
[3]; [14]
  Cmax: 153 nM
T. gondii tachyzoites [6]; 62.5 nM
  Effect on T. gondii ultrastructure (TEM): increased endoplasmic reticulum area
T. gondii tachyzoites [6]; 125 nM
  Effect on T. gondii ultrastructure (TEM): vacuoles containing parasites were completely lysed
[1]; [17]
  IC50: ≤ 0.03 µM
[2]; [18]
  IC50: 0.02 µM
[2]; [19]
  IC50: < 0.03 µM
[7]; [20]
  activity at 0.0312 µM: 47.9%
[7]; [21]
  inhibition at 0.0625 µM: 75 to 80%
[7]; [22]
  activity at 0.0625 µM: 30.5%
  activity at 0.125 µM: 33%
In vitro
  CC50 at 7 days: 6080 ± 4630 nM

## CC(C)C[C@H](NC(=O)[C@H](Cc1ccccc1)NC(=O)c1cnccn1)B(O)O [Bortezomib]
T. gondii tachyzoites [8]; 72 h of treatment, ref Cajazeiro et al. (2022) [24], read-out: EC50 against T. gondii
  EC50: 220 nM
T. gondii tachyzoites [8]; 72 h of treatment, ref [34], read-out: IC50 in tachyzoites of T. gondii
  IC50: 100 nM
[4]
  CC50 at 7 days: 720 ± 240 nM
T. gondii tachyzoites [6]; 62.5 nM
  Effect on T. gondii ultrastructure (TEM): affected the parasite cell division
[5]; human, in vivo
  Cmax: 148 nM
  Plasma concentration (Cmax): 56.7 ng/mL
[1]; [17]
  IC50: ≤ 0.03 µM
[2]; [18]
  IC50: 0.03 µM
[2]; [19]
  IC50: < 0.03 µM
[7]; 31.2 nM, 24 h, read-out: Inhibition of parasite proliferation
  inhibition at 0.0312 µM: 75 to 80%
[7]; [20]
  activity at 0.0312 µM: 20.9%
[7]; [21]
  inhibition at 0.0625 µM: > 90%
[7]; [22]
  activity at 0.0625 µM: 9.23%
T. gondii tachyzoites [9]; 31.2 nM
  PVs with parasites with aberrant division: 23.6%
T. gondii tachyzoites [9]; 62.5 nM
  PVs with parasites with aberrant division: 48.0%
In vitro
  selectivity ratio at 7 days: 24

## CCCCc1oc2ccccc2c1C(=O)c1cc(I)c(OCCN(CC)CC)c(I)c1 [amiodarone, Amiodarone]
[2]
  Cytotoxicity for the host cells during the initial screening: signs of cytotoxicity for the host cells

## CC[C@H]1CN2CCc3cc(OC)c(OC)cc3[C@@H]2C[C@@H]1C[C@H]1NCCc2cc(OC)c(OC)cc21 [Emetine]
[5]; [23]
  Plasma concentration (Cmax): 9.6 ng/mL
[5]; [24]
  Cmax: 20 nM
[1]; [17]
  IC50: < 0.1 µM
[1]; [15]
  IC50: 0.05 ± 0.01 µM
In vitro
  CC50 at 7 days: 1020 ± 190 nM

## CC(C)(C)Cn1c(N)nc2ccc(-c3[nH]c(C(C)(C)C)nc3-c3ccc(F)cc3)nc21 [LY2228820]
[1]; [17]
  IC50: < 0.1 µM
[1]; [15]
  IC50: 0.04 µM

## COc1c(C)c2c(c(O)c1C/C=C(\C)CCC(=O)O)C(=O)OC2 [Mycophenolic acid]
T. gondii tachyzoites [8]; 24 h of treatment, ref [23], read-out: IC50 for T. gondii tachyzoites
  IC50: 211000 nM
[4]
  CC50 at 7 days: 23800 ± 32000 nM
T. gondii tachyzoites [6]; 250 nM
  Effect on T. gondii ultrastructure (TEM): affected the tachyzoites’ division process
[5]; Human, ref Table S3 supplementary refs 20, 25
  Plasma concentration (Cmax): 24300 ng/mL
[5]; [16]
  Cmax: 75800 nM
[1]; [17]
  IC50: < 0.1 µM
[1]; [15]
  IC50: 0.07 ± 0.01 µM
[7]; [22]
  activity at 0.125 µM: 61.3%
  activity at […]: 42%
[7]; 250 nM (0.25 µM), 24 h, read-out: Inhibition of parasite proliferation
  inhibition at […]: 55 to 60%
In vitro
  selectivity ratio at 7 days: 340

## COC(=O)C1=C(C)NC(C)=C(C(=O)OCCN2CCN(C(c3ccccc3)c3ccccc3)CC2)C1c1cccc([N+](=O)[O-])c1 (centres unmarked) [Manidipine]
[5]; human, in vivo
  Cmax: 9 nM
  Plasma concentration (Cmax): 5.53 ng/mL
[1]; [15]
  IC50: 0.74 ± 0.09 µM

## COc1ccc2cc1Oc1ccc(cc1)C[C@H]1c3cc(c(OC)cc3CCN1C)Oc1c(OC)c(OC)cc3c1[C@H](C2)N(C)CC3 [Tetrandrine]
[3]; ref Table S3 supplementary refs 28, 32
  Plasma concentration (Cmax): 237.10 ng/mL
[3]; [14]
  Cmax: 381 nM
[1]; [15]
  IC50: 0.35 ± 0.07 µM
[10]
  Brain availability: confirmed
[11]
  Does it cross the blood-brain barrier or is found in the brain?: Yes
In vitro
  CC50 at 7 days: 4770 ± 8250 nM
  selectivity ratio at 7 days: 14

## C[C@H]1O[C@@H](O[C@H]2[C@@H](O)C[C@H](O[C@H]3[C@@H](O)C[C@H](O[C@H]4CC[C@@]5(C)[C@H](CC[C@@H]6[C@@H]5C[C@@H](O)[C@]5(C)[C@@H](C7=CC(=O)OC7)CC[C@]65O)C4)O[C@@H]3C)O[C@@H]2C)C[C@H](O)[C@@H]1O [Digoxin]
[1]; [17]
  IC50: ≤ 0.03 µM
[1]; [15]
  IC50: 0.03 ± 0.01 µM
In vitro
  CC50 at 7 days: 340 ± 320 nM

## Ivermectin
T. gondii tachyzoites [6]; 1 µM
  Effect on T. gondii ultrastructure (TEM): induced the formation of myelin-like structures
[5]; [23]
  Plasma concentration (Cmax): 260.5 ng/mL
[5]; [24]
  Cmax: 298 nM
[12]; Mouse, ref Table S3 supplementary ref 16
  Plasma concentration (Cmax): 642.3 ng/mL
[12]; read-out: Plasma concentration (Cmax), Mouse/Mice, ref Table S3 supplementary refs 16, 27
  Cmax: 734 nM
T. gondii tachyzoites [9]; 1 µM
  Effect on tachyzoite cell division (fluorescence microscopy): significant cell division arrestment

## COc1cc(NC(=O)Nc2cccc(CNC(=O)O[C@H]3CCOC3)c2)ccc1-c1cnco1 [Merimepodib]
T. gondii tachyzoites [8]; 72 h of treatment, ref [23], read-out: IC50 for T. gondii tachyzoites
  IC50: 780 nM
[5]; [23]
  Plasma concentration (Cmax): 1590 ng/mL
[5]; [24]
  Cmax: 5510 nM
[1]; [15]
  IC50: < 0.5 µM
[2]; [18]
  IC50: 0.48 ± 0.08 µM
[7]; 1.5 µM, 24 h, read-out: Inhibition of parasite proliferation
  inhibition at […]: 55 to 60%
[7]; 2.0 µM, 24 h, read-out: Inhibition of parasite proliferation
  inhibition at 2 µM: 55 to 60%

## C[C@H]1O[C@@H](O[C@H]2[C@@H](O)C[C@H](O[C@H]3[C@@H](O)C[C@H](O[C@H]4CC[C@@]5(C)[C@H](CC[C@@H]6[C@@H]5CC[C@]5(C)[C@@H](C7=CC(=O)OC7)CC[C@]65O)C4)O[C@@H]3C)O[C@@H]2C)C[C@H](O)[C@@H]1O [digitoxin, Digitoxin]
[1]
  inhibition at 1 µM: ≥ 70%

## COc1cccc2c1C(=O)c1c(O)c3c(c(O)c1C2=O)C[C@@](O)(C(=O)CO)C[C@@H]3O[C@H]1C[C@H](N)[C@H](O)[C@H](C)O1 [doxorubicin, Doxorubicin]
[1]
  inhibition at 1 µM: ≥ 70%

## C[C@H]1c2cccc(O)c2C(=O)C2=C(O)[C@]3(O)C(=O)C(C(N)=O)=C(O)[C@@H](N(C)C)[C@@H]3[C@@H](O)[C@@H]21 [doxycycline, Doxycycline]
[1]
  inhibition at 1 µM: ≥ 70%

## O=c1[nH]c2ccccc2n1C1CCN(CCCC(c2ccc(F)cc2)c2ccc(F)cc2)CC1 [Pimozide]
[1]; [15]
  IC50: 0.64 ± 0.15 µM

## Cc1ccc(C(=O)Nc2ccc(CN3CCN(C)CC3)c(C(F)(F)F)c2)cc1C#Cc1cnc2cccnn12 [Ponatinib]
[5]; [23]
  Plasma concentration (Cmax): 123 ng/mL
[5]; [24]
  Cmax: 231 nM
[1]; [15]
  IC50: 0.33 ± 0.03 µM

## CCC(C)n1ncn(-c2ccc(N3CCN(c4ccc(OCC5COC(Cn6cncn6)(c6ccc(Cl)cc6Cl)O5)cc4)CC3)cc2)c1=O (centres unmarked) [itraconazole, Itraconazole]
[1]
  inhibition at 1 µM: ≥ 70%

## CCc1nc(N)nc(N)c1-c1ccc(Cl)cc1 [Pyrimethamine]
[7]; [22]
  activity at 0.125 µM: 87.3%
  activity at […]: 56.6%
[7]; 500 nM, 24 h of treatment, read-out: Proliferation index (%)
  activity at 0.5 µM: 39.2%
[7]; 1000 nM, 24 h of treatment, read-out: Proliferation index (%)
  activity at 1 µM: 22%
